US20070117770A1, “Human ribosomal DNA (rDNA) and ribosomal RNA (rRNA) nucleic acids and uses thereof” (Cylene Pharmaceuticals, Inc., priority 2005, published 2007)

Experiments:
Abl(T315I)(h) = Abl(T315I)(h) (Homo sapiens, UniProt P00519, T315I); assay: Protein kinase inhibition assay; format: biochemical; settings: read-out: percent residual activity of Abl(T315I)(h)
Experimental: (§1) Certain compounds were tested for activity in protein kinase inhibition assays. All substrates were dissolved and diluted to working stocks in de-ionized water, apart from histone H1 (10× working stock in 20 mM MOPS pH 7.0), PDKtide (10× working stock in 50 mM Tris pH 7.0) ATF2 (which is typically stored at a 20× working stock in 50 mM Tris pH 7.5, 150 mM NaCl, 0.1 mM EGTA, 0.03% Brij-35, 50% glycerol, 1 mM benzamidine, 0.2 mM PMSF and 0.1% R-mercaptoethanol), KKLNRTLSFAEPG (SEQ ID NO:203) and RRRLSFAEPG (SEQ ID NO:204) (50 mM HEPES pH 7.4) and GGEEEEYFELVKKKK (SEQ ID NO:205) (20 mM MOPS pH 7.0). All kinases were pre-diluted to a 10× working concentration prior to addition into the assay. The composition of the dilution buffer for each kinase is detailed below.
(§2) In a final reaction volume of 25 μl, Abl (T3151) (h) (5-10 mU) is incubated with 8 mM MOPS pH 7.0, 0.2 mM EDTA, 50 μM EAIYAAPFAKKK (SEQ ID NO:206), 10 mM MgAcetate and [gamma-33P-ATP] (specific activity approx. 500 cpm/pmol, concentration as required). The reaction is initiated by the addition of the MgATP mix. After incubation for 40 minutes at room temperature, the reaction is stopped by the addition of 5 μl of a 3% phosphoric acid solution. 10 μl of the reaction is then spotted onto a P30 filtermat and washed three times for 5 minutes in 75 mM phosphoric acid and once in methanol prior to drying and scintillation counting.

CDK2/cyclinE(h) = CDK2/cyclinE(h) (Homo sapiens, UniProt P24941); assay: Protein kinase inhibition assay; format: biochemical; settings: read-out: percent residual activity of CDK2/cyclinE(h)
Experimental: as §1
as §2, with “CDK2/cyclinE” for “Abl (T3151)”, “0.1 mg/ml histone H1,” for “50 μM EAIYAAPFAKKK (SEQ ID NO:206),”

Met(h) = Met(h) (Homo sapiens, UniProt P08581); assay: Protein kinase inhibition assay; format: biochemical; settings: read-out: percent residual activity of Met(h)
Chain of Met(h) (P08581 25-1390): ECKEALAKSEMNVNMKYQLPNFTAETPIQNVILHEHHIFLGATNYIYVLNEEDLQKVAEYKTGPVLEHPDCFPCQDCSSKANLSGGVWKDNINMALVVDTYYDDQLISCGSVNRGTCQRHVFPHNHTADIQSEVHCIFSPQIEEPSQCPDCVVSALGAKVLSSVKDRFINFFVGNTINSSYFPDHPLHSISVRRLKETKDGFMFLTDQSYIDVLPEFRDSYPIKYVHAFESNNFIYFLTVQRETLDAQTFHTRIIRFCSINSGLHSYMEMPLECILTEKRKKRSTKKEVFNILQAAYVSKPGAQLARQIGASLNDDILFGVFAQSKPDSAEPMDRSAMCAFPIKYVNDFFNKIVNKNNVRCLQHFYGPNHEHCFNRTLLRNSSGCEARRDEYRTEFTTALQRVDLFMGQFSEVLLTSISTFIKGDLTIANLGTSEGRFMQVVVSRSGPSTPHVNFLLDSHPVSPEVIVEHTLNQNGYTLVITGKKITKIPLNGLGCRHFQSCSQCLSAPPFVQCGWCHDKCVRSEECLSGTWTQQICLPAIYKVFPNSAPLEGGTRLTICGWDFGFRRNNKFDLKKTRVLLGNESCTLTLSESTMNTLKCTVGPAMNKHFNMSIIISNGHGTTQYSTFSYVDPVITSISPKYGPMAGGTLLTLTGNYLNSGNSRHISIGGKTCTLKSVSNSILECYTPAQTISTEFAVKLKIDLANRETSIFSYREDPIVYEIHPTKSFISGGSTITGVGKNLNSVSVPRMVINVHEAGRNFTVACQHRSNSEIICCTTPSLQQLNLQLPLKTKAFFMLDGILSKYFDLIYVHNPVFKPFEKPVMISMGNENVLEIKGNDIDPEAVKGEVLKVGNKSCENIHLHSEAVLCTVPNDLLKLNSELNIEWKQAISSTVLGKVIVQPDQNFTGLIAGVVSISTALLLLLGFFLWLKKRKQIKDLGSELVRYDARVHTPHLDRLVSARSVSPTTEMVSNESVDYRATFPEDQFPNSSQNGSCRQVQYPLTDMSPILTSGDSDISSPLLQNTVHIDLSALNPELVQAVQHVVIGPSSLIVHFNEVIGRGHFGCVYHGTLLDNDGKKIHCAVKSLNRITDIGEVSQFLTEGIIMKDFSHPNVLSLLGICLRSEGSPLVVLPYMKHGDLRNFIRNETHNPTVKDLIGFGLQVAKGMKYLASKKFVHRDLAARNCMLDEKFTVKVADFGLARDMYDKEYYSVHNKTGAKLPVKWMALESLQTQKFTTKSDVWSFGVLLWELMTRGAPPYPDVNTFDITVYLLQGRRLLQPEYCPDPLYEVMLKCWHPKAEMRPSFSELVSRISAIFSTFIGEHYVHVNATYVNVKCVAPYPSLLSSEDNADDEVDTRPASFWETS
Experimental: as §1
In a final reaction volume of 25 μl, Met (h) (5-10 mU) is incubated with 8 mM MOPS pH 7.0, 0.2 mM EDTA, 250 μM KKKSPGEYVNIEFG (SEQ ID NO:207), 10 mM MgAcetate and [y-33P-ATP] (specific activity approx. 500 cpm/pmol, concentration as required). The reaction is initiated by the addition of the MgATP mix. After incubation for 40 minutes at room temperature, the reaction is stopped by the addition of 5 μl of a 3% phosphoric acid solution. 10 μl of the reaction is then spotted onto a P30 filtermat and washed three times for 5 minutes in 75 mM phosphoric acid and once in methanol prior to a drying and scintillation counting.

ROCK-II(r) = ROCK-II(r) (Rattus norvegicus, UniProt Q62868); assay: Protein kinase inhibition assay; format: biochemical; settings: read-out: percent residual activity of ROCK-II(r)
Chain of ROCK-II(r) (Q62868 whole entry): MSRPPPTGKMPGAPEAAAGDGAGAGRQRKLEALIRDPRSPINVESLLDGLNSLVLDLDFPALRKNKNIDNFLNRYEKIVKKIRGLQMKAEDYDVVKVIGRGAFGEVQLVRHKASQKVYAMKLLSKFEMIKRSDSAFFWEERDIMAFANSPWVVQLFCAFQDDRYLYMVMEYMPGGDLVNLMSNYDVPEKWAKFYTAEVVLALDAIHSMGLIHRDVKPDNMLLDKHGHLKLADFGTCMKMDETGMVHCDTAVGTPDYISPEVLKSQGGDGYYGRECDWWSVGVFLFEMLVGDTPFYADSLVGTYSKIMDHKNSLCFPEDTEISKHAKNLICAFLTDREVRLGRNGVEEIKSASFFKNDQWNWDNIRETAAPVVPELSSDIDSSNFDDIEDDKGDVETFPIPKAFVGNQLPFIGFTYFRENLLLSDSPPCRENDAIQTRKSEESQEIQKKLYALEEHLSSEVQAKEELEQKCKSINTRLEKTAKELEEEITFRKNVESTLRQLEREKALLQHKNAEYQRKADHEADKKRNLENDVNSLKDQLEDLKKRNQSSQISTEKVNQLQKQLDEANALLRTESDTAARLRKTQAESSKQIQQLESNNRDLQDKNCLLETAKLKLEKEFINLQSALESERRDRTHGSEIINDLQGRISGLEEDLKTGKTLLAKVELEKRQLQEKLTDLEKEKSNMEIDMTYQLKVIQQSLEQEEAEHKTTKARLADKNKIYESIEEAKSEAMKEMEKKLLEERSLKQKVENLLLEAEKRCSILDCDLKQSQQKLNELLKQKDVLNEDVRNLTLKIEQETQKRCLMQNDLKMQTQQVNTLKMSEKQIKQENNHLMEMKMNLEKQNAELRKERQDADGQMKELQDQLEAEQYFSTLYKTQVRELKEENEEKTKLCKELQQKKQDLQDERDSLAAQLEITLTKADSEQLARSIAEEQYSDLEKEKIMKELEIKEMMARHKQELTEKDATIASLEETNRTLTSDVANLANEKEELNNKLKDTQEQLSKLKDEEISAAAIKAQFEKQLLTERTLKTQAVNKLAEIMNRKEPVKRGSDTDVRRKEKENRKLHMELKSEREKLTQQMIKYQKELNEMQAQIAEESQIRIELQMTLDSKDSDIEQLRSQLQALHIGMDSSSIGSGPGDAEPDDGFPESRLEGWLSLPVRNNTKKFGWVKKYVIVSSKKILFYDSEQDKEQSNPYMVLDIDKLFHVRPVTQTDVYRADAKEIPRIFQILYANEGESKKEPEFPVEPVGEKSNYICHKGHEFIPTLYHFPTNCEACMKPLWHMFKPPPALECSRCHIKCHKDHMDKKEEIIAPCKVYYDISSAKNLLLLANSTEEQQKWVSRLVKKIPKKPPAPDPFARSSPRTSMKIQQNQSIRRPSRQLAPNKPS
Experimental: as §1
In a final reaction volume of 25 μl, ROCK-II (r) (5-10 mU) is incubated with 50 mM Tris pH 7.5, 0.1 mM EGTA, 30 μM […] (SEQ ID NO:222), 10 mM MgAcetate and [gamma-33P-ATP] (specific activity approx. 500 cpm/pmol, concentration as required). The reaction is initiated by the addition of the MgATP mix. After incubation for 40 minutes at room temperature, the reaction is stopped by the addition of 5 μl of a 3% phosphoric acid solution. 10 μl of the reaction is then spotted onto a P30 filtermat and washed three times for 5 minutes in 75 mM phosphoric acid and once in methanol prior to drying and scintillation counting.

SGK2(h) = SGK2(h) (Homo sapiens, UniProt Q9HBY8); assay: Protein kinase inhibition assay; format: biochemical; settings: read-out: percent residual activity of SGK2(h)
Chain of SGK2(h) (Q9HBY8 whole entry): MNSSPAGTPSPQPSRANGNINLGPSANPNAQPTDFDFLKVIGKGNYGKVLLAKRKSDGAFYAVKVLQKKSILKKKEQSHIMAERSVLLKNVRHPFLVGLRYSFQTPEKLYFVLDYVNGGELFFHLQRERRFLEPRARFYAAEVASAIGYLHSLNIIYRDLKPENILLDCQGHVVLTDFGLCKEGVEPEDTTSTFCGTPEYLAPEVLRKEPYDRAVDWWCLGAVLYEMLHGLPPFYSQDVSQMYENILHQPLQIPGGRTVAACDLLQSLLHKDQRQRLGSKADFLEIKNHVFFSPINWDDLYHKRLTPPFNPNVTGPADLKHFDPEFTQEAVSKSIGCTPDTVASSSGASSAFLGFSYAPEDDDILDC
Experimental: as §1
as §2, with “μl, SGK2” for “μl, Abl (T3151)”, “EDTA, 30” for “EDTA, 50”, “μM GRPRTSSFAEGKK” for “μM EAIYAAPFAKKK”, “ID NO:226),” for “ID NO:206),”

nucleolin/cMyc QP DNA = molecular target: T1, nucleolin/cMyc QP DNA (Homo sapiens, UniProt P19338); assay: EMSA, nucleolin/QP ligand interaction; format: binding; settings: nucleolin ~250 nM, 32P-labeled ligand 10 or 250 nM, 30 minutes (FIG. 1, FIG. 2)
T1 construct: without the N-terminal acidic stretches domain
T1 sequence (P19338 284-710 limits assumed): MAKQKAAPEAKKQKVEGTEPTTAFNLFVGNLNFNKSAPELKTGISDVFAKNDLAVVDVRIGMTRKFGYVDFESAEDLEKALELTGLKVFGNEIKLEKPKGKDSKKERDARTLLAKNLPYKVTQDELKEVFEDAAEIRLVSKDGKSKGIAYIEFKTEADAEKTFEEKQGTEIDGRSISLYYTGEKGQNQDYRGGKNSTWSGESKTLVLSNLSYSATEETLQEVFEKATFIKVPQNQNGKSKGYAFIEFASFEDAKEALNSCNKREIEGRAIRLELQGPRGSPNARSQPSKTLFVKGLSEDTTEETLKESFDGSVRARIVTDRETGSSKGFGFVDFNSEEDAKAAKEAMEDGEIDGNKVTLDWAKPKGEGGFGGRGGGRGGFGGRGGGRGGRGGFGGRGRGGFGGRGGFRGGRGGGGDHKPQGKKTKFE
Experimental: The following assays assessed effects of compounds on interactions between nucleolin and nucleic acid ligands capable of forming quadruplex (QP) and hairpin (HP) secondary structures. Nucleic acid ligands tested were a cMyc QP DNA having nucleotide sequence 5′-[…]-3′ (SEQ ID NO: 176) and a HP pre-rRNA region to which nucleolin binds, having the sequence 5′-[…]-3′ (SEQ ID NO: 177). In the assays, recombinant nucleolin (˜250 nM), which was fused to maltose binding protein and had the sequence under accession number NM_005381 without the N-terminal acidic stretches domain, was incubated with each of the two ^32P-labeled nucleic acid ligands (10 or 250 nM). Nucleolin and the nucleic acid ligand were incubated in the presence or absence of a test compound of Formula A-1, B-1, C-6 or C-7 in an incubation buffer (12.5 mM Tris, pH 7.6, 60 mM KCl, 1 mM MgCl2, 0.1 mM EDTA, 1 mM DTT, 5% glycerol, 0.1 mg/ml BSA) for 30 minutes at room temperature. Structures for A-1 and B-1 are shown above and structures for C-6 and C-7 are shown hereafter: [drawing 17] The resulting complexes were separated on a 6% DNA retardation gel using 0.5× TBE with 20 mM KCl as a running buffer (i.e., electrophoresis mobility shift assay (EMSA)).

| remaining activity at 2.5 µM (Abl(T315I)(h)) [%] | remaining activity at 2.5 µM (CDK2/cyclinE(h)) [%] | remaining activity at 2.5 µM (Met(h)) [%] | remaining activity at 2.5 µM (ROCK-II(r)) [%] | remaining activity at 2.5 µM (SGK2(h)) [%] | Structure (SMILES) | interference with the nucleolin/QP ligand interaction (nucleolin/cMyc QP DNA) |
| --- | --- | --- | --- | --- | --- | --- |
| 52 | 102 | 132 | 48 | 38 | CN1CCCC1CCNC(=O)c1cn2c3c(c(N4CCC(c5cnccn5)C4)c(F)cc3c1=O)Oc1cc3ccccc3cc1-2 (stereo not drawn) [Compound A-1] | interfered with the nucleolin/QP ligand interaction in a concentration dependent manner |
| 106 | 117 | 115 | 103 | 104 | CC(=O)N1CCN(c2ccc3c(=O)c(C(=O)NCCN4CCCC4)c4n(C)c5ccccc5n4c3n2)CC1 [Compound B-1] | interfered with the nucleolin/QP ligand interaction in a concentration dependent manner |
